The values that follow come from article PMC8911699, “Biological and Cheminformatics Studies of Newly Designed Triazole Based Derivatives as Potent Inhibitors against Mushroom Tyrosinase” (Molecules, 2022).

Usually melting point stands for the temperature, or range, at which the solid turns liquid. One may read the Ki as a dissociation constant, usually derived from enzyme kinetics or from competition with a known ligand.

The target of series [1] is T1, mushroom tyrosinase (Agaricus bisporus, UniProt C7FF04). Nature of the series: Mushroom tyrosinase inhibition assay (dopachrome technique, L-DOPA substrate). It counts as biochemical. The procedure:
The inhibition of mushroom tyrosinase was determined by an alteration of the dopachrome technique using L-DOPA as a substrate. The mushroom tyrosinase (EC-232-653-4) was purchased from Sigma Korea. […] After the incubation time, the absorbance was measured at 475 nm using a microplate reader (SpectraMax ABS, Molecular Devices, California, CA, USA) and the inhibition percentage was calculated in relation to the control. […] Each concentration was scrutinized in three independent experiments. IC50 values were calculated by non-linear regression using GraphPad Prism 5.0. The % inhibition of tyrosinase was calculated as follows:Inhibition (%) = [(B−S)/B] ×100 where the B and S are the absorbances of the blank control and normal samples, respectively.
Target sequence in this assay (C7FF04 2-392): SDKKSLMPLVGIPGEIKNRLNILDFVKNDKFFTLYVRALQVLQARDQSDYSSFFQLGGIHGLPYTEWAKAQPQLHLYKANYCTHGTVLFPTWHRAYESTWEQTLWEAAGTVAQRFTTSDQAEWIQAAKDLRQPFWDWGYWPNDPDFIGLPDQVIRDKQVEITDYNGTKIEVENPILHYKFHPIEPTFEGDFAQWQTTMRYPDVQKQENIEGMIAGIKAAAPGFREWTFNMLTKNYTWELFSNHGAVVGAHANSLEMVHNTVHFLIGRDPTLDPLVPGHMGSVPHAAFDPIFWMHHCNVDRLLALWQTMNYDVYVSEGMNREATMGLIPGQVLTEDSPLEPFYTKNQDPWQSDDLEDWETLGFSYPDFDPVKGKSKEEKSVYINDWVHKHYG

In series [2] the target is T1, mushroom tyrosinase. Nature of the series: Inhibition kinetics (Lineweaver-Burk and secondary plots). In kind it is biochemical. Details: purchased Sigma Korea EC-232-653-4. The procedure:
To understand the inhibitory mechanism of synthetic compounds on tyrosinase, an inhibition kinetic study was performed. […] The kinetic results of the enzyme expressed by the Lineweaver–Burk plot of 1/V versus 1/[S] for different inhibitor concentrations provided a series of straight lines. […] Additionally, the Km value increased with increasing the concentration of the inhibitor. […] The inhibition constant Ki was computed from Figure 4.
A series of experiments were performed to regulate the inhibition kinetics of 9h by following the already reported methods. The inhibitor concentrations for 9h were 0.00, 0.049, 0.098, and 0.196 µM. Substrate (L-DOPA) concentrations were between 0.0625 to 2 mM in all kinetic studies. Pre-incubation and measurement time were the same as discussed in the mushroom tyrosinase inhibition assay protocol. Maximal initial velocity was obtained from the initial linear portion of absorbance up to five minutes after the addition of enzyme at the 30 s interval. The inhibition type of the enzyme was assayed by Lineweaver–Burk plots of the inverse of velocities (1/V) versus the inverse of substrate concentration 1/[S] mM^−1.
Target sequence in this assay (C7FF04 1-392 limits assumed): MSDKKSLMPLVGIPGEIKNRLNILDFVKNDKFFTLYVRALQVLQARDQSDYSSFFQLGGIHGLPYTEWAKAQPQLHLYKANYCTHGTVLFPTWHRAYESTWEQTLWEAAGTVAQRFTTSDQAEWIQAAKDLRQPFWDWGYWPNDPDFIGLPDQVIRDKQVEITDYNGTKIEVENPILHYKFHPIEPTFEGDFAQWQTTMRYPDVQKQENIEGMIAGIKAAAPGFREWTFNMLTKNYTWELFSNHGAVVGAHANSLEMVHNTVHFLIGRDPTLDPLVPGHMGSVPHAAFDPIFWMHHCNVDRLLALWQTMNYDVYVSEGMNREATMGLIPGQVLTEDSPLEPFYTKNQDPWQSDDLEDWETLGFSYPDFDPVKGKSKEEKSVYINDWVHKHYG

Entries after “also recorded” stand apart in the source; their conditions may differ.

Compound `O=C(CSc1nnc(-c2ccc(F)cc2)n1-c1ccc(F)cc1)Nc1ccc(F)cc1` [9b, 2-(4,5-Bis(4-fluorophenyl)-4H-1,2,4-triazol-3-ylthio)-N-(4-fluorophenyl) Acetamide] yielded a melting point of 195.3 °C. Further, the “response against mushroom tyrosinase inhibition (in words)” value at mushroom tyrosinase [1] was “did not show any response; also recorded: ineffective counter response”.

With `O=C(CSc1nnc(-c2ccc(F)cc2)n1-c1ccc(F)cc1)Nc1ccc(Br)cc1` [9c, 2-(4,5-Bis(4-fluorophenyl)-4H-1,2,4-triazol-3-ylthio)-N-(4-bromophenyl) Acetamide], the melting point is 219.3 °C. In addition, the “response against mushroom tyrosinase inhibition (in words)” value on mushroom tyrosinase [1] was “did not show any response; also recorded: ineffective counter response”.

With `O=C(CSc1nnc(-c2ccccc2)n1-c1ccc(F)cc1)Nc1ccccc1` [9d, 2-(4-(4-Fluorophenyl)-5-phenyl-4H-1,2,4-triazol-3-ylthio)-N-phenylacetamide], the melting point is 206 °C.

Consider `O=C(CSc1nnc(-c2ccccc2)n1-c1ccc(F)cc1)Nc1ccc(F)cc1` [9e, N-(4-fluorophenyl)-2-(4-(4-fluorophenyl)-5-phenyl-4H-1,2,4-triazol-3-ylthio) Acetamide], for which the melting point was 220.1 °C.

Regarding `O=C(CSc1nnc(-c2ccccc2F)n1-c1ccc(F)cc1)Nc1ccc(F)cc1` [9h, N-(4-fluorophenyl)-2-(5-(2-fluorophenyl)-4-(4-fluorophenyl)-4H-1,2,4-triazol-3-ylthio) Acetamide], the inhibition type entry against mushroom tyrosinase [2] (Lineweaver-Burk plot, Vmax same, Km increased) was “competitively inhibits”. On mushroom tyrosinase [2] (from plot of slope versus inhibitor concentration, L-DOPA 0.0625-2 mM, read-out: inhibition constant Ki), the Ki was determined as 0.018 µM.

With `O=C(CSc1nnc(-c2ccccc2F)n1-c1ccc(F)cc1)Nc1ccc(Br)cc1` [9i, N-(4-bromophenyl)-2-(5-(2-fluorophenyl)-4-(4-fluorophenyl)-4H-1,2,4-triazol-3-ylthio) Acetamide], the melting point came out at 248.9 °C. Besides, on mushroom tyrosinase [1], the “response against mushroom tyrosinase inhibition (in words)” value is “did not show any response”.
